Data reported in patent publication US20200078363A1, “POST-SURGICAL PAIN TREATMENT” (Heron Therapeutics, Inc., priority 2018, published 2020).

System: post-surgical incisional (post-operative or POP) pain
Assay: Post-operative (POP) pain porcine model, von Frey test
Format: in vivo
Conditions: Group 1: IV aprepitant 6 mg/kg once prior to surgery and daily for 5 days after surgery, no other medication; 4 pigs
Excerpt: Example 1 describes three studies conducted to evaluate the capacity to reduce post-surgical incisional (post-operative or POP) pain in a porcine model system. Using a post-operative (POP) pain porcine model system, where a 7 cm long skin and fascia incision was made in the left flank under general anesthesia to pigs, NK-1 receptor antagonist alone or in combination with pain medication (i.e., bupivacaine and meloxicam) were applied to the wound. The skin incision was then closed using sterile sutures. Various methods were evaluated for their capacity to reduce post-surgical incisional (post-operative or POP) pain in a porcine model system. […] All studies described below evaluated 4 pigs per group. Post-operative pain was assessed using the von Frey methodology. […] By alternating the filament thickness, the gram force required to achieve withdrawal reaction was determined and recorded. […] Several studies evaluated emulsion compositions containing aprepitant (diluted 1:7) with saline, administered by intravenous infusion dosed at 6 mg/kg as a slow bolus via an IV catheter in the ear. […] Analgesia was evaluated by response in the von Frey test, as described above. […] By following similar procedures described in Example 1, the analgesic effect of a lower dose of aprepitant (i.e., lower than 6.0 mg/kg) was evaluated. […]

C[C@@H](O[C@H]1OCCN(Cc2n[nH]c(=O)[nH]2)[C@H]1c1ccc(F)cc1)c1cc(C(F)(F)F)cc(C(F)(F)F)c1 [aprepitant]
analgesia, von Frey response (withdrawal force): little analgesic response
